Source: patent publication US9994594B2, “Inhibitors of arginase and their therapeutic applications” (MARS, INCORPORATED, priority 2010, dated 2018)
Counter-ions that a name gives are not always drawn. Like-named read-outs stand apart in the source and are kept apart here.

Columns and labels:
human arginase I (ARG I) = target: T1, human arginase I (ARG I) (Homo sapiens, UniProt P05089); test: Inhibition of arginase I, spectrophotometric urea assay at 530 nm; type: biochemical; conditions: read-out: Potency (ARG I)
T1 sequence (P05089 1-322): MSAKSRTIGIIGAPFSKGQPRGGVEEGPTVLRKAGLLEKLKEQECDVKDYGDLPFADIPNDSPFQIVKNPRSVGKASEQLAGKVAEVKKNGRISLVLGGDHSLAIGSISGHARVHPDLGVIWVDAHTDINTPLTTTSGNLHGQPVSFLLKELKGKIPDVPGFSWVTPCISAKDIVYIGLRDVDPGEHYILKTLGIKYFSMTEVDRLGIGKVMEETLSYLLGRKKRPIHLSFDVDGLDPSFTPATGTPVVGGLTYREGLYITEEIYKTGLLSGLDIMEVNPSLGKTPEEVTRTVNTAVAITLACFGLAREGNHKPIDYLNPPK
In short: (§1)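 IC50 was derived by regression of OD530 normalized to uninhibited-enzyme controls against log concentration. Urea from 60-min, 37 °C turnover of L-arginine with manganese sulfate was detected after acid o-phthaldialdehyde/primaquine quench and 10 min colour development. Arginase I and II came from 100 ng/ml stocks in pH 7.4 phosphate with ovalbumin.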

arginase II (ARG II) = target: T2, arginase II (ARG II) (Homo sapiens, UniProt P78540); test: Inhibition of arginase II, spectrophotometric urea assay at 530 nm; type: biochemical
T2 sequence (P78540 23-354): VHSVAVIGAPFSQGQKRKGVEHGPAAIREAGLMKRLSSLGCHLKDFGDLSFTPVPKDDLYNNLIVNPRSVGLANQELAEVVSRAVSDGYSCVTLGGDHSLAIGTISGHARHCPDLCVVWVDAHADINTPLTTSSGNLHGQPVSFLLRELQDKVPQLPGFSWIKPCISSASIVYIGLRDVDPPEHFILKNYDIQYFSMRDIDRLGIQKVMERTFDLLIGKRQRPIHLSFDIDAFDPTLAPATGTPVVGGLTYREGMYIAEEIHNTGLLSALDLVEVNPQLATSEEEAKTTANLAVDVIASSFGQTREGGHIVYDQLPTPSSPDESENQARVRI
In short: as §1

[1] = Formula I compounds, Table 2, read-out: Potency (ARG II)
[2] = Formula II compounds, Table 2-A
[3] = Formula II compounds, Table 2-A, read-out: Potency (ARG)

IC50 (human arginase I (ARG I); Formula I compounds, Table 2) | IC50 (arginase II (ARG II); [1]) | IC50 (human arginase I (ARG I); [2]) | IC50 (arginase II (ARG II); [3]) | SMILES
251 to 1000 nM | 1000 to 2000 nM |  |  | NC(CCCCB(O)O)(CCN1CCCC1)C(=O)O (stereo not drawn) [compound 16, 2-amino-6-borono-2-(2-(pyrrolidin-1-yl)ethyl)hexanoic acid]
2000 to 5000 nM | 2000 to 5000 nM |  |  | NC(CCCCB(O)O)(CCN(CCO)Cc1ccccc1)C(=O)O (stereo not drawn) [compound 20, 2-Amino-2-{2-[benzyl-(2-hydroxyethyl)-amino]-ethyl}-6-borono-hexanoic acid dihydrochloride]
 |  | 2000 to 5000 nM | 2000 to 5000 nM | NC(CCCCB(O)O)(C(=O)O)C1CCN(C(=O)c2ccccc2)CC1 (stereo not drawn) [30-A, 2-amino-6-borono-2-[1-benzoylpiperidin-4-yl]hexanoic acid hydrochloride]
0.1 to 250 nM | 0.1 to 250 nM |  |  | CNC(CCCCB(O)O)(CCCN1CCCC1)C(=O)O (stereo not drawn) [compound 137, 6-borono-2-(methylamino)-2-(3-(pyrrolidin-1-yl)propyl)hexanoic acid dihydrochloride]
 |  | 251 to 1000 nM | 251 to 1000 nM | NC(CCCCB(O)O)(C(=O)O)[C@@H]1CCN(S(=O)(=O)c2ccccc2[N+](=O)[O-])C1 (stereo partly drawn) [Example 40-A, 2-amino-6-borono-2-((R)-1-(2-nitrophenylsulfonyl)pyrrolidin-3-yl)hexanoic acid]
251 to 1000 nM | 251 to 1000 nM |  |  | COC[C@@H]1CCCN1CC[C@](N)(CCCCB(O)O)C(=O)O [compound 2, (R)-2-amino-6-borono-2-(2-((S)-2-(methoxymethyl)pyrrolidin-1-yl)ethyl)hexanoic acid dihydrochloride]
0.1 to 250 nM | 0.1 to 250 nM |  |  | N[C@](CCCCB(O)O)(C[C@H]1CCCN1)C(=O)O (stereo in doubt) [compound 115, (R)-2-amino-6-borono-2-((R)-pyrrolidin-2-ylmethyl)hexanoic acid]
251 to 1000 nM | 251 to 1000 nM |  |  | NC(CCCCB(O)O)(CCN1CCC(Cc2ccc(Cl)cc2)CC1)C(=O)O (stereo not drawn) [compound 122, 2-amino-6-borono-2-(2-(4-(4-chlorobenzyl)piperidin-1-yl)ethyl)hexanoic acid dihydrochloride]
 |  | 1000 to 2000 nM | 251 to 1000 nM | NC(CCCCB(O)O)(C(=O)O)C1CCN(c2ccc(Cl)cn2)CC1 (stereo not drawn) [Example 85-A, 2-amino-6-borono-2-(1-(5-chloropyridin-2-yl)piperidin-4-yl)hexanoic acid hydrochloride]
 |  | 1000 to 2000 nM | 1000 to 2000 nM | NC(CCCCB(O)O)(C(=O)O)C1CCN(c2cc(C(F)(F)F)nc3ccccc23)CC1 (stereo not drawn) [3-A, 2-amino-6-borono-2-[(2-Trifluoromethyl-quinolin-4-yl)-piperidin-4-yl)-hexanoic acid hydrochloride]
 |  | 251 to 1000 nM | 0.1 to 250 nM | NC(CCCCB(O)O)(C(=O)O)C1CCN(CCc2ccccc2)CC1 (stereo not drawn) [Example 41-A, 2-amino-6-borono-2-(1-phenethylpiperidin-4-yl)hexanoic acid]
 |  | 1000 to 2000 nM | 2000 to 5000 nM | Cc1cc(C(F)(F)F)cc(N2CCC(C(N)(CCCCB(O)O)C(=O)O)CC2)n1 (stereo not drawn) [7-A, 2-amino-6-borono-2-(1-(6-methyl-4-(trifluoromethyl)pyridin-2-yl)piperidin-4-yl)hexanoic acid]
0.1 to 250 nM | 251 to 1000 nM |  |  | NCCN(CCC(N)(CCCCB(O)O)C(=O)O)Cc1ccccc1 (stereo not drawn) [compound 73, 2-amino-2-(2-((2-aminoethyl)(benzyl)amino)ethyl)-6-boronohexanoic acid trihydrochloride]
2000 to 5000 nM | 2000 to 5000 nM |  |  | CN1CCCN(CCC(N)(CCCCB(O)O)C(=O)O)CC1 (stereo not drawn) [compound 49, 2-amino-6-borono-2-(2-(4-methyl-1,4-diazepan-1-yl)ethyl)hexanoic acid dihydrochloride]
 |  | 1000 to 2000 nM | 2000 to 5000 nM | NC(CCCCB(O)O)(C(=O)O)C1CCN(c2nccc(C(F)(F)F)n2)CC1 (stereo not drawn) [2-A, 2-amino-6-borono-2-[(4-Trifluoromethyl-pyrimidin-2-yl)-piperidin-4-yl)-hexanoic acid hydrochloride]
0.1 to 250 nM | 251 to 1000 nM |  |  | NC(CCCCB(O)O)(CCNCc1ccccc1)C(=O)O (stereo not drawn) [compound 70, 2-amino-2-(2-(benzylamino)ethyl)-6-boronohexanoic acid dihydrochloride]
 |  | 0.1 to 250 nM | 0.1 to 250 nM | NC(CCCCB(O)O)(C(=O)O)C1CCN(Cc2ccccc2)CC1 (stereo not drawn) [Example 87-A, 2-amino-2-(1-benzylpiperidin-4-yl)-6-boronohexanoic acid dihydrochloride]

IC50 (human arginase I (ARG I); Formula I compounds, Table 2) | IC50 (arginase II (ARG II); [1]) | IC50 (human arginase I (ARG I); [2]) | IC50 (arginase II (ARG II); [3]) | SMILES
 |  | 251 to 1000 nM | 2000 to 5000 nM | NC(CCCCB(O)O)(C(=O)O)C1CCN(C(=O)Nc2ccc(Cl)cc2)C1 [36-A, 2-amino-6-borono-2-((S)-1-(4-chlorophenylcarbamoyl)pyrrolidin-3-yl)hexanoic acid hydrochloride]
1000 to 2000 nM | 2000 to 5000 nM |  |  | NCCN(CCN)CCC(N)(CCCCB(O)O)C(=O)O (stereo not drawn) [compound 51, 2-amino-2-(2-(bis(2-aminoethyl)amino)ethyl)-6-boronohexanoic acid tetrahydrochloride]
 |  | 0.1 to 250 nM | 0.1 to 250 nM | NC(CCCCB(O)O)(C(=O)O)[C@H]1C[C@@H](NCc2ccc(Cl)cc2)C1 (stereo partly drawn) [Example 82-A, cis-2-amino-6-borono-2-(3-(4-chlorobenzylamino)cyclobutyl)hexanoic acid dihydrochloride]
2000 to 5000 nM | 2000 to 5000 nM |  |  | NC(CCCCB(O)O)(CCN1CCCCC1C(=O)O)C(=O)O (stereo not drawn) [compound 52, 1-(3-amino-7-borono-3-carboxyheptyl)piperidine-2-carboxylic acid dihydrochloride]
251 to 1000 nM | 1000 to 2000 nM |  |  | COc1ccc(CC2(NCCC(N)(CCCCB(O)O)C(=O)O)CC2)cc1 (stereo not drawn) [compound 61, 2-amino-6-borono-2-(2-(1-(4-methoxybenzyl)cyclopropylamino)ethyl)hexanoic acid]
1000 to 2000 nM | 1000 to 2000 nM |  |  | O=C(O)C(CCCCB(O)O)NCc1ccc(Cl)cc1 (stereo not drawn) [compound 145, 6-borono-2-(4-chlorobenzylamino)hexanoic acid hydrochloride]
2000 to 5000 nM | > 5000 nM |  |  | NC(CCCCB(O)O)(C(=O)O)C(O)C1CCNCC1 (stereo not drawn) [compound 109, 2-amino-6-borono-2-(hydroxy(piperidin-4-yl)methyl)hexanoic acid dihydrochloride]
2000 to 5000 nM | > 5000 nM |  |  | COCCN1CCN(CCC(N)(CCCCB(O)O)C(=O)O)CC1 (stereo not drawn) [compound 77, 2-amino-6-borono-2-(2-(4-(2-methoxyethyl)piperazin-1-yl)ethyl)hexanoic acid trihydrochloride]
251 to 1000 nM | 251 to 1000 nM |  |  | COc1ccc(C2=CCN(CCC(N)(CCCCB(O)O)C(=O)O)CC2)cc1 (stereo not drawn) [compound 31, 2-amino-6-borono-2-(2-(4-(4-methoxyphenyl)-5,6-dihydropyridin-1(2H)-yl)ethyl)hexanoic acid dihydrochloride]
251 to 1000 nM | 1000 to 2000 nM |  |  | NC(CCCCB(O)O)(CCN1CCc2ccccc2C1)C(=O)O (stereo not drawn) [compound 36, 2-amino-6-borono-2-(2-(3,4-dihydroisoquinolin-2(1H)-yl)ethyl)hexanoic acid dihydrochloride]
0.1 to 250 nM | 0.1 to 250 nM |  |  | COc1cccc(CCCNCCC(N)(CCCCB(O)O)C(=O)O)c1 (stereo not drawn) [compound 65, 2-amino-6-borono-2-(2-(3-(3-methoxyphenyl)propylamino)ethyl)hexanoic acid dihydrochloride]
0.1 to 250 nM | 0.1 to 250 nM |  |  | NC(CCCCB(O)O)(CCCNCCc1ccc(Cl)cc1Cl)C(=O)O (stereo not drawn) [compound 140, 2-amino-6-borono-2-(3-(2,4-dichlorophenethylamino)propyl)hexanoic acid dihydrochloride]
251 to 1000 nM | 1000 to 2000 nM |  |  | NC(CCCCB(O)O)(CCNC(=S)Nc1ccc(Cl)c(Cl)c1)C(=O)O (stereo not drawn) [compound 119, 2-amino-6-borono-2-(2-(3-(3,4-dichlorophenyl)thioureido)ethyl)hexanoic acid hydrochloride]
 |  | 0.1 to 250 nM | 251 to 1000 nM | COc1cccc(-c2ccccc2CN2CCC(C(N)(CCCCB(O)O)C(=O)O)CC2)c1 (stereo not drawn) [Example 58-A, 2-amino-6-borono-2-(1-((3′-methoxybiphenyl-2-yl)methyl)piperidin-4-yl)hexanoic acid dihydrochloride]
 |  | 2000 to 5000 nM | 2000 to 5000 nM | NC(CCCCB(O)O)(C(=O)O)C1CCN(c2ncc(C(F)(F)F)cc2Cl)CC1 (stereo not drawn) [10-A, 2-amino-6-borono-2-(1-(3-chloro-5-(trifluoromethyl)pyridin-2-yl)piperidin-4-yl)hexanoic acid dihydrochloride]
0.1 to 250 nM | 251 to 1000 nM |  |  | N[C@](CCCCB(O)O)(CCN1CC[C@@H](CO)C1)C(=O)O [compound 7, (R)-2-amino-6-borono-2-(2-((R)-3-(hydroxymethyl)pyrrolidin-1-yl)ethyl)hexanoic acid dihydrochloride]
